Assay results: ChEMBL document CHEMBL4616593, “Formaldehyde-activated WEHI-150 induces DNA interstrand crosslinks with unique structural features” (Bioorg Med Chem, 2020)
Active and inactive are the calls of the source. No cut-off for these calls is given here.

Legend:
Type in all cases: nucleic-acid assay
DNA [1] = experiment: Stabilization of [32P]-labelled dsDNA (unknown origin) assessed as drug-DNA adduct formation by measuring residual dsDNA level at 2.5 uM measured after 16 hrs in presence of formaldehyde by phosphorimaging analysis relative to control
DNA [2] = experiment: Stabilization of [32P]-labelled dsDNA (unknown origin) assessed as drug-DNA adduct formation by measuring adduct half life incubated for 12 hrs in presence of formaldehyde by phosphorimaging analysis
DNA [3] = experiment: Stabilization of [32P]-labelled dsDNA (unknown origin) assessed as drug-DNA adduct formation at 5 uM in presence of formaldehyde incubated for 12 hrs by phosphorimaging analysis relative to control
DNA [4] = experiment: Stabilization of [32P]-labelled dsDNA (unknown origin) assessed as drug-DNA adduct formation by measuring increase in retardation of dsDNA migration on gel at >3 uM incubated for 12 hrs in presence of formaldehyde by phosphorimaging analysis
DNA [5] = experiment: Stabilization of [32P]-labelled dsDNA (unknown origin) assessed as drug-DNA adduct formation incubated for 12 hrs in presence of formaldehyde by phosphorimaging analysis
DNA [6] = experiment: Induction of transcriptional blockage of 512 bp DNA fragment (unknown origin) assessed as loss of full length transcript comprising 379 nucleotide at 5 uM incubated for 4 hrs in presence of formaldehyde using [alpha-32P]UTP by phosphorimaging analysis
DNA [7] = experiment: Induction of transcriptional blockage of 512 bp DNA fragment (unknown origin) assessed as loss of full length transcript comprising 379 nucleotide at 10 uM incubated for 4 hrs in presence of formaldehyde using [alpha-32P]UTP by phosphorimaging analysis relative to control
DNA [8] = experiment: Induction of transcriptional blockage of 512 bp DNA fragment (unknown origin) at 2.5 uM incubated for 4 hrs in presence of formaldehyde using [alpha-32P]UTP by phosphorimaging analysis
DNA [9] = experiment: Binding affinity to dsBE45 oligonucleotide (unknown origin) assessed as drug-DNA adduct formation at 5 to 50 uM incubated for 4 hrs in presence of formaldehyde using [gamma-32P]ATP by phosphorimaging analysis
DNA [10] = experiment: Stabilization of dsBE12 oligonucleotide (unknown origin) assessed as drug-DNA adduct formation at 5 to 50 uM incubated for 4 hrs in presence of formaldehyde using [gamma-32P]ATP by phosphorimaging analysis relative to control
DNA [11] = experiment: Stabilization of dsBE15 oligonucleotide (unknown origin) assessed as drug-DNA adduct formation at 50 uM incubated for 4 hrs in presence of formaldehyde using [gamma-32P]ATP by phosphorimaging analysis relative to control
DNA [12] = experiment: Stabilization of dsBE17 oligonucleotide (unknown origin) assessed as drug-DNA adduct formation at 5 to 50 uM incubated for 4 hrs in presence of formaldehyde using [gamma-32P]ATP by phosphorimaging analysis
DNA [13] = experiment: Stabilization of dsBE67 oligonucleotide (unknown origin) assessed as drug-DNA adduct formation at 5 to 50 uM incubated for 4 hrs in presence of formaldehyde using [gamma-32P]ATP by phosphorimaging analysis relative to control
DNA [14] = experiment: Stabilization of [32P]-labelled dsDNA (unknown origin) assessed as drug-DNA adduct formation at 1 uM to 24 uM incubated for 12 hrs in presence of formaldehyde by phosphorimaging analysis
DNA [15] = experiment: Stabilization of [32P]-labelled dsDNA (unknown origin) assessed as drug-DNA adduct formation by measuring adduct half life at 10 uM in presence of formaldehyde by phosphorimaging analysis
DNA [16] = experiment: Stabilization of dsBE15 oligonucleotide (unknown origin) assessed as drug-DNA adduct formation at 5 to 50 uM incubated for 4 hrs in presence of formaldehyde using [gamma-32P]ATP by phosphorimaging analysis
DNA [17] = experiment: Stabilization of [32P]-labelled dsDNA (unknown origin) assessed as drug-DNA adduct formation by measuring residual dsDNA level at 6 uM measured after 10 days in presence of formaldehyde by phosphorimaging analysis relative to control
DNA [18] = experiment: Stabilization of [32P]-labelled dsDNA (unknown origin) assessed as drug-DNA adduct formation by measuring residual dsDNA level at 6 uM measured after 16 hrs in presence of formaldehyde by phosphorimaging analysis relative to control
DNA [19] = experiment: Induction of transcriptional blockage of 512 bp DNA fragment (unknown origin) at 2.5 to 10 uM incubated for 4 hrs in presence of formaldehyde using [alpha-32P]UTP by phosphorimaging analysis

Row | Structure (SMILES) | Activity (DNA [1]) | T1/2 (DNA [2]) | Activity (DNA [3]) | Activity (DNA [4]) | Activity (DNA [5]) | Activity (DNA [6]) | Activity (DNA [7]) | Activity (DNA [8]) | Activity (DNA [9]) | Activity (DNA [10]) | Activity (DNA [11]) | Activity (DNA [12]) | Activity (DNA [13]) | Activity (DNA [14]) | T1/2 (DNA [15]) | Activity (DNA [16]) | Activity (DNA [17]) | Activity (DNA [18]) | Activity (DNA [19])
1 | O=C1c2c(O)ccc(O)c2C(=O)c2c(NCCNCCO)ccc(NCCNCCO)c21 | – | 0.42 h | 5% | – | – | – | – | – | – | Active | – | – | – | – | – | – | – | – | –
2 | NCCCCCNc1ccc(F)c2c1C(=O)c1ccncc1C2=O | – | – | < 1% | – | – | – | – | – | – | – | – | – | – | inactive | – | – | – | – | –
3 | NCCCCCNc1ccc(NCCCCCN)c2c1C(=O)c1ccncc1C2=O | – | – | < 2% | – | – | – | – | – | – | – | – | – | – | inactive | – | – | – | – | –
4 | NCCCCCNc1ccc(F)c2c1C(=O)c1c(O)ccc(O)c1C2=O | – | 24 h | 50% | – | – | – | – | – | inactive | inactive | – | Active | 10% | Active | 27 h | inactive | – | – | –
5 | NCCNCCNc1ccc(F)c2c1C(=O)c1c(O)ccc(O)c1C2=O | – | 10 h | 25% | – | Dose-dependent effect | – | – | – | – | Active | – | Active | Active | – | – | Active | – | 20% | Active

The next lines start with the values.

Row | Activity (DNA [1]) | T1/2 (DNA [2]) | Activity (DNA [3]) | Activity (DNA [4]) | Activity (DNA [5]) | Activity (DNA [6]) | Activity (DNA [7]) | Activity (DNA [8]) | Activity (DNA [9]) | Activity (DNA [10]) | Activity (DNA [11]) | Activity (DNA [12]) | Activity (DNA [13]) | Activity (DNA [14]) | T1/2 (DNA [15]) | Activity (DNA [16]) | Activity (DNA [17]) | Activity (DNA [18]) | Activity (DNA [19]) | Structure (SMILES)
6 | 20% | 12.5 h | 90 to 100% | Active | Dose-dependent effect | Active | 100% | Active | Active | < 80% | > 75% | Active | Active | – | – | – | – | – | – | NCCNCCNc1ccc(NCCNCCN)c2c1C(=O)c1c(O)ccc(O)c1C2=O
7 | – | 53 h | 40% | – | – | – | – | – | inactive | 20% | – | Active | 30% | Active | – | inactive | 17% | – | – | NCCCCCNc1ccc(NCCCCCN)c2c1C(=O)c1c(O)ccc(O)c1C2=O
8 | – | 2.3 h | 30% | – | – | – | – | – | inactive | 30% | – | Active | < 55% | Active | – | inactive | – | – | – | NCCNc1ccc(NCCN)c2c1C(=O)c1c(O)ccc(O)c1C2=O
